Where a name gives a salt, the structure may show the parent alone.
How the values were obtained:
[1] = Water content (Karl-Fisher titration) after sitting uncapped on the bench overnight; format: physicochemical; details: 0.15% vs. 0.16%
Protocol: Water content was measured using Karl-fisher titration.

[2] = Stability of BIL-1022 in water and methanol; format: physicochemical; details: low pH (3-5), room temperature (20-25° C.)
Protocol: The stability of BIL-1022 was briefly studied. BIL-1022 is stable in water and methanol at low pH (3-5) at room temperature (20-25° C.).

water content of the product upon sitting in vial (uncapped) on the bench overnight [1]: remained substantially unchanged
stability in water and methanol [2]: stable
SMILES: CC(=O)Nc1ccc(OC(=O)CCCN)cc1 [BIL-1022, 4-acetamidophenyl 4-aminobutanoate hydrochloride]
